Experimental data as given in patent US10144726B2, “Modulators of the p70S6 kinase for use in the treatment of brain disorders and triple-negative breast cancer” (SENTINEL ONCOLOGY LIMITED, priority 2015, dated 2018).
Where a name gives a salt, the structure may show the parent alone. Read-outs that look alike come from different tables or passages of the source.

Legend:
[1] = target: p70S6K (h) (Homo sapiens, UniProt P23443); experiment: Determination of p70S6 inhibitory activity (radiometric kinase assay); type: biochemical; details: read-out: (a) p70S6K1 IC50
Protocol: The ability of compounds of the invention to inhibit P70S6 kinase was determined using the protocol below.
20 mM MOPS, 1 mM EDTA, 0.01% Brij-35, 5% Glycerol, 0.1% b-mercaptoethanol, 1 mg/mL BSA
In a final reaction volume of 25 μL, p70S6K (h) (5-10 mU) is incubated with 8 mM MOPS pH 7.0, 0.2 mM EDTA, 100 μM KKRNRTLTV, 10 mM Mg acetate and [γ-33P-ATP] (specific activity approx. 500 cpm/pmol, concentration as required). The reaction is initiated by the addition of the MgATP mix. After incubation for 40 minutes at room temperature, the reaction is stopped by the addition of 5 μL of a 3% phosphoric acid solution. 10 μL of the reaction mixture is then spotted onto a P30 filtermat and washed three times for 5 minutes in 75 mM phosphoric acid and once in methanol prior to drying and scintillation counting.

[2] = test system: phosphorylation of S6 Ser235/236 in MCF-7 cells; experiment: MCF-7 pS6 ELISA (phosphorylation of S6 Ser235/236); type: cell-based; details: Homo sapiens, MCF7; for IC50: S6 Ser235/236, 1% FBS, 2 h, read-out: (b) MCF-7 pS6 ELISA IC50
Protocol: The following assay provides IC50 values for inhibition of P70S6K activity in a whole cell assay by determining effects on the phosphorylation of S6^Ser235/236 in MCF-7 cells by ELISA.
The following protocol was used: • 1) MCF-7 cells were seeded in 96-well plates at a density of 7000 cells per well and allowed to adhere for 6 h in media containing 10% FBS. • 2) The full serum media was replaced and cells incubated overnight in media containing 1% FBS, prior to addition of test compounds. • 3) Test compounds were prepared from 10 mM DMSO stocks to give final concentration ranges as indicated on graphs. DMSO was constant at a final concentration of 1%. • 4) Test compounds were incubated with cells in duplicate for 2 h at 37° C/5% CO2 in a humidified atmosphere. • 5) The media was removed and cells were lysed by freeze-thawing in cell lysis buffer. • 6) Detection of phosphorylated S6Ser235/236 was then carried out using a PathScan ELISA kit (Cell Signaling Technology #7205). • 7) Lysates were diluted 1:1 with sample diluent before being applied to wells coated with an antibody against phosphorylated-S6 protein. • 8) The ELISA was then performed as stated in the manufacturers' instructions. • 9) The raw data were normalised to control values and analysed using a 4-parameter logistic equation in GraphPad Prism.

[3] = test system: MCF-7 cells; experiment: MCF-7 proliferation assay (Alamar blue, 72 h); type: cell-based; details: Homo sapiens, MCF7, 72 h; read-out: (c) MCF-7 proliferation IC50
Protocol: The following assay was used to determine the ability of test compounds to inhibit cell growth.
The following protocol was used: • 1) MCF-7 cells were seeded in 96-well plates at 5000 cells per well and allowed to adhere overnight prior to addition of compound or vehicle control. • 2) Test compounds were prepared from 10 mM DMSO stocks to give a final concentration range of 100 μM, 30 μM, 10 μM, 3 μM, 1 μM, 0.3 μM, 0.1 μM, 0.03 μM, 0.01 μM and vehicle control. The DMSO content was constant at 1%. • 3) Test compounds were incubated with the cells for 72 h at 37° C. 5% CO2 in a humidified atmosphere. • 4) Alamar blue 10% (v/v) was then added and incubated for a further 6 h, and fluorescent product detected using the BMG FLUOstar plate reader. • 5) Data were analysed using a 4-parameter logistic equation in GraphPad Prism.

[4] = Brain and plasma concentrations in an in vivo cassette mouse model; set-up: species or system male CD-1 mice; details: male, PO cassette, 2.5 mg/kg per compound; for Kp at 3 h: read-out: (d) Brain: Plasma ratio at 3 hours
Protocol: The compounds of this invention were evaluated in an in vivo cassette mouse model to determine brain and plasma concentrations following oral dosing. This is an industry-standard and recognised means to assess brain penetration of small molecules (for recent literature article, refer to In vitro permeability analysis, pharmacokinetic and brain distribution study in mice of imperatorin, isoimperatorin and cnidilin in Radix Angelicae Dahuricae, Fitoterapia, Volume 85, March 2013 , Pages 144-153). It is also recognised that higher brain concentrations (and higher ratios of brain: plasma concentration) lead to greater exposure in the brain—this is clearly advantageous if the brain is the site of action.
For a single cassette study, male CD-1 mice were used (n=3 per timepoint, two timepoints: 1.0 hr and 3.0 hr).
5 compounds were dosed PO per cassette (dose level 2.5 mg/kg per compound, dose conc. 0.25 mg/ml, dose volume 10.0 ml/kg).
Formulation used to solubilize compounds: 10% DMSO/90% hydroxypropyl-β-cyclodextrin (20% w/v aqueous)
Sampling was terminal and plasma and brain matrices were generated. To prepare plasma samples, protein was precipitated using acetonitrile. To prepare brain samples, homogenisation and protein precipitation was performed with acetonitrile. Samples were analysed using HPLC-TOF MS using electrospray ionisation.

[5] = test system: phosphorylation of S6 at Serine residues 240 and 244 in MCF7 cells; experiment: MCF7 pS6 ELISA variant (pS240/244, 0% FBS); type: cell-based; details: Homo sapiens, S6 Serine 240 and 244 detected, read-out: (b) MCF-7 pS6 ELISA IC50 (pS240/244 variant)
[6] = CD-1, brain, read-out: (d) Brain conc. at 3 hours
[7] = CD-1, plasma, read-out: (d) Plasma conc. at 3 hours

p70S6K (h), sequence (P23443 whole entry): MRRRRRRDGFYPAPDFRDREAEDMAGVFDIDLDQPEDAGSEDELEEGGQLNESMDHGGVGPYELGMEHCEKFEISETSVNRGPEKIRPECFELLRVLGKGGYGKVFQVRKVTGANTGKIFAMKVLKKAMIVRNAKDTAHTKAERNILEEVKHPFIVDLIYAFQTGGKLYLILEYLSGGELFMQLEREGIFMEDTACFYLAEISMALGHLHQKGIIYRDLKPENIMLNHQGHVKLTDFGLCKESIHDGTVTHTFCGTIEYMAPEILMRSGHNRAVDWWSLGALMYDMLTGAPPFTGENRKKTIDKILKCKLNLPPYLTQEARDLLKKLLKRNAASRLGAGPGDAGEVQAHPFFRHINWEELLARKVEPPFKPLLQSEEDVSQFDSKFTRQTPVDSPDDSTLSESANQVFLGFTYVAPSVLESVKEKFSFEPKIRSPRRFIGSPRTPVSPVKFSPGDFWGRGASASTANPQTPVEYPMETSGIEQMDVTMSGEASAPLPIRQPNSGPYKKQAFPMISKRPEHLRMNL

CN(Cc1ccccc1)c1cnc2cc(-c3cn[nH]c3)ccc2n1 [Example 1]
IC50 [1]: 4 nM | IC50 [2]: 3000 nM | IC50 [3]: 12200 nM | concentration at 3 h [4, 6]: 3650 nM | Kp at 3 h ([4]; CD-1, brain): 3.8 | concentration at 3 h [4, 7]: 970 nM

Clc1cccc(CNc2cnc3cc(-c4cn[nH]c4)ccc3n2)c1 [Example 2]
IC50 [1]: 25 nM | IC50 [2]: 400 nM | IC50 [3]: 15000 nM | concentration at 3 h [4, 6]: 1500 nM | Kp at 3 h ([4]; CD-1, brain): 1.2 | concentration at 3 h [4, 7]: 1230 nM

Fc1ccc(CNc2cnc3cc(-c4cn[nH]c4)ccc3n2)cc1 [Example 3]
IC50 [1]: 26 nM | IC50 [2]: 3200 nM | IC50 [3]: 5300 nM | concentration at 3 h [4, 6]: 590 nM | Kp at 3 h ([4]; CD-1, brain): 1.1 | concentration at 3 h [4, 7]: 520 nM

COc1cccc(CNc2cnc3cc(-c4cn[nH]c4)ccc3n2)c1 [Example 4]
IC50 [1]: 30 nM | IC50 [2]: 400 nM | IC50 [3]: 2300 nM | concentration at 3 h [4, 6]: 1080 nM | Kp at 3 h ([4]; CD-1, brain): 0.6 | concentration at 3 h [4, 7]: 1730 nM

CN(Cc1ccc(F)cc1)c1cnc2cc(-c3cn[nH]c3)ccc2n1 [Example 5]
IC50 [1]: 12 nM | IC50 [2]: 3200 nM | IC50 [3]: 33000 nM | concentration at 3 h [4, 6]: 2480 nM | Kp at 3 h ([4]; CD-1, brain): 3.3 | concentration at 3 h [4, 7]: 760 nM

CCN(Cc1ccccc1)c1cnc2cc(-c3cn[nH]c3)ccc2n1 [Example 6]
IC50 [1]: 33 nM | IC50 [3]: 28000 nM | concentration at 3 h [4, 6]: 2380 nM | Kp at 3 h ([4]; CD-1, brain): 4.3 | concentration at 3 h [4, 7]: 550 nM

CN(Cc1cccc(F)c1)c1cnc2cc(-c3cn[nH]c3)ccc2n1 [Example 7]
IC50 [1]: 9 nM | IC50 [2]: 900 nM | IC50 [3]: 7000 nM | concentration at 3 h [4, 6]: 2880 nM | Kp at 3 h ([4]; CD-1, brain): 3.5 | concentration at 3 h [4, 7]: 830 nM

Fc1ccc(CNc2cnc3cc(-c4cn[nH]c4)ccc3n2)cc1F [Example 8]
IC50 [1]: 26 nM | IC50 [2]: 1400 nM | IC50 [3]: 24000 nM | concentration at 3 h [4, 6]: 820 nM | Kp at 3 h ([4]; CD-1, brain): 1.1 | concentration at 3 h [4, 7]: 760 nM

C[C@@H](Nc1cnc2cc(-c3cn[nH]c3)ccc2n1)c1ccccc1 [Example 9]
IC50 [1]: 3 nM | IC50 [2]: 300 nM | IC50 [3]: 15000 nM | concentration at 3 h [4, 6]: 2070 nM | Kp at 3 h ([4]; CD-1, brain): 1.4 | concentration at 3 h [4, 7]: 1510 nM

CN(Cc1ccccc1)c1nc2ccc(-c3cn[nH]c3)cc2[n+]([O-])n1 [Example 10]
IC50 [1]: 62 nM | concentration at 3 h [4, 6]: 750 nM | Kp at 3 h ([4]; CD-1, brain): 4.2 | concentration at 3 h [4, 7]: 180 nM

CN(Cc1ccccc1)c1nnc2cc(-c3cn[nH]c3)ccc2n1 [Example 11]
IC50 [1]: 64 nM | concentration at 3 h [4, 6]: 2620 nM | Kp at 3 h ([4]; CD-1, brain): 7.5 | concentration at 3 h [4, 7]: 350 nM

COc1cccc([C@@H](C)Nc2cnc3cc(-c4cn[nH]c4)ccc3n2)c1 [Example 12]
IC50 [1]: 7 nM | IC50 [2]: 800 nM | IC50 [3]: 8400 nM | concentration at 3 h [4, 6]: 2400 nM | Kp at 3 h ([4]; CD-1, brain): 0.5 | concentration at 3 h [4, 7]: 5050 nM

C[C@H](c1ccccc1)N(C)c1cnc2cc(-c3cn[nH]c3)ccc2n1 [Example 13]
IC50 [1]: 5 nM | IC50 [2]: 1200 nM | concentration at 3 h [4, 6]: 2960 nM | Kp at 3 h ([4]; CD-1, brain): 4.2 | concentration at 3 h [4, 7]: 700 nM

COc1cccc([C@@H](C)N(C)c2cnc3cc(-c4cn[nH]c4)ccc3n2)c1 [Example 14]
IC50 [1]: 9 nM | IC50 [2]: 900 nM | IC50 [3]: 9000 nM | concentration at 3 h [4, 6]: 2650 nM | Kp at 3 h ([4]; CD-1, brain): 3.3 | concentration at 3 h [4, 7]: 790 nM

Cc1cccc([C@@H](C)Nc2cnc3cc(-c4cn[nH]c4)ccc3n2)c1 [Example 16]
IC50 [1]: 18 nM | inhibition at 0.3 µM ([2]; at 0.3 uM, read-out: (b) MCF-7 pS6 ELISA inhibition): 57% | IC50 [3]: 4200 nM | concentration at 3 h [4, 6]: 3250 nM | Kp at 3 h ([4]; CD-1, brain): 1 | concentration at 3 h [4, 7]: 3340 nM

[O-][n+]1nc(NCc2ccccc2)nc2ccc(-c3cn[nH]c3)cc21 [Example 17]
IC50 [1]: 32 nM | concentration at 3 h [4, 6]: 210 nM | Kp at 3 h ([4]; CD-1, brain): 1.3 | concentration at 3 h [4, 7]: 160 nM

C[C@@H](Nc1nc2ccc(-c3cn[nH]c3)cc2[n+]([O-])n1)c1ccccc1 [Example 18, 1-oxido-N-[(1R)-1-phenylethyl]-7-(1H-pyrazol-4-yl)-1,2,4-benzotriazin-1-ium-3-amine hydrochloride]
IC50 [1]: 12 nM | IC50 [5]: 5040 nM | concentration at 3 h [4, 6]: 990 nM | Kp at 3 h ([4]; CD-1, brain): 1.8 | concentration at 3 h [4, 7]: 560 nM

C[C@@H](Nc1nnc2cc(-c3cn[nH]c3)ccc2n1)c1ccccc1 [Example 19, N-[(1 R)-1-phenylethyl]-7-(1H-pyrazol-4-yl)-1,2,4-benzotriazin-3-amine hydrochloride]
IC50 [1]: 22 nM | IC50 [5]: 4590 nM | concentration at 3 h [4, 6]: 2330 nM | Kp at 3 h ([4]; CD-1, brain): 2.9 | concentration at 3 h [4, 7]: 810 nM
